Assay [1] concerns the target EGFR del19/T790M/C797S (Homo sapiens, UniProt P00533, C797S/DEL746-750/T790M). The assay is described as follows: Biochemical EGFR kinase assay (Lance Ultra TR-FRET), triple mutant del19/T790M/C797S. Summed up: (§1)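 In this biochemical assay, phosphorylation after a one-hour room-temperature reaction was detected with europium-labelled anti-phosphopeptide antibody at 2 nM final concentration.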
For orientation: Time-resolved FRET reads energy transfer from a long-lived donor to a nearby acceptor.

Assay [2] addresses EGFR del19/C797S (Homo sapiens, UniProt P00533, C797S/DEL746-750). In words: Biochemical EGFR kinase assay (Lance Ultra TR-FRET), double mutant del19/C797S. The essentials: as §1
For assay [3], the target named is EGFR L858R/T790M/C797S (Homo sapiens, UniProt P00533, C797S/L858R/T790M). The assay is described as follows: Biochemical EGFR kinase assay (Lance Ultra TR-FRET), triple mutant L858R/T790M/C797S. Summed up: as §1
EGFR L858R/T790M/C797S, sequence (P00533 25-1210 T790M/C797S/L858R): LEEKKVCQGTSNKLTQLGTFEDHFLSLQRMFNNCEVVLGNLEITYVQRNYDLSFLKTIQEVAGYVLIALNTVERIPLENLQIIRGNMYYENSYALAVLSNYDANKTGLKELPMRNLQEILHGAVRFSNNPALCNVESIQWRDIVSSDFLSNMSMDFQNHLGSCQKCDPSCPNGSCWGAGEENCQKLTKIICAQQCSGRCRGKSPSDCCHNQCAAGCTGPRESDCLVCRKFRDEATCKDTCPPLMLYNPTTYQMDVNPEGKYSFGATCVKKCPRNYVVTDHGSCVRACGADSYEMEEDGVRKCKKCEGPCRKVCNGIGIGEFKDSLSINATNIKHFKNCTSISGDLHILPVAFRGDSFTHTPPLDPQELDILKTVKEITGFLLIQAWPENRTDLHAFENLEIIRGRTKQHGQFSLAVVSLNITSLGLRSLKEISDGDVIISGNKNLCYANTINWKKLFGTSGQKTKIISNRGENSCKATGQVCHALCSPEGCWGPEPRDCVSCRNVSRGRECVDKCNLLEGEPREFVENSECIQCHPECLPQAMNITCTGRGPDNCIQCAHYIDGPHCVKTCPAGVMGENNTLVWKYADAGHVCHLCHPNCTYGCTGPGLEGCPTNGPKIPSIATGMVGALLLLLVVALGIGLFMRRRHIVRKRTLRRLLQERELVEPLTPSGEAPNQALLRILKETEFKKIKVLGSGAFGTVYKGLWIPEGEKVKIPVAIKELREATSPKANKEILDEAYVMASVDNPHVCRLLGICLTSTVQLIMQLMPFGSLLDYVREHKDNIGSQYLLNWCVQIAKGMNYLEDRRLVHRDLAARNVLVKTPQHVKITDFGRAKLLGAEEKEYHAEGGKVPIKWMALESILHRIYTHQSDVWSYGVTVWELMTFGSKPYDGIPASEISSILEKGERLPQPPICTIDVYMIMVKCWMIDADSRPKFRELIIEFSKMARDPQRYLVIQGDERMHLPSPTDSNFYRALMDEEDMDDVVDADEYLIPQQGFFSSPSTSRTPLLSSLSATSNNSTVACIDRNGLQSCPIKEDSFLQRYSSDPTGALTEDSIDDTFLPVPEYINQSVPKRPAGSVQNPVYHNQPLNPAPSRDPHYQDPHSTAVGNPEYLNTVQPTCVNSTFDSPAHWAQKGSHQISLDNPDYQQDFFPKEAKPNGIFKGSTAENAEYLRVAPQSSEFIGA
Assay [4] concerns the target EGFR L858R/C797S (Homo sapiens, UniProt P00533, C797S/L858R). In words: Biochemical EGFR kinase assay (Lance Ultra TR-FRET), double mutant L858R/C797S. Summed up: as §1
Assay [5] concerns the target EGFR wildtype (WT) (Homo sapiens, UniProt P00533). The assay is described as follows: Biochemical EGFR kinase assay (Lance Ultra TR-FRET), wildtype. The essentials:
as §1

The mark [6] stands for this setting: IC50 del19/T790M/C797S (nM) 100 μM ATP, 100 μM ATP.
The mark [7] stands for this setting: IC50 del19/C797S (nM) 100 μM ATP, 100 μM ATP.
[8] abbreviates: IC50 L858R/T790M/C797S (nM) 100 μM ATP, 100 μM ATP.
[9] abbreviates: IC50 L858R/C797S (nM) 100 μM ATP, 100 μM ATP.
Where [10] appears, read: IC50 WT (nM) 100 μM ATP, 100 μM ATP.
[11] abbreviates: Km ATP, read-out: IC50 del19/C797S (nM) Km ATP.
[12] abbreviates: Km ATP, read-out: IC50 L858R/T790M/C797S (nM) Km ATP.
Setting [13] is: Km ATP, read-out: IC50 L858R/C797S (nM) Km ATP.
Setting [14] is: Km ATP, read-out: IC50 WT (nM) Km ATP.

Where two headings read alike, the source gives them in different places. Bounds are passed on as bounds.

EGFR del19/C797S, sequence (P00533 with tags, fused parts or gaps DEL746-750/C797S): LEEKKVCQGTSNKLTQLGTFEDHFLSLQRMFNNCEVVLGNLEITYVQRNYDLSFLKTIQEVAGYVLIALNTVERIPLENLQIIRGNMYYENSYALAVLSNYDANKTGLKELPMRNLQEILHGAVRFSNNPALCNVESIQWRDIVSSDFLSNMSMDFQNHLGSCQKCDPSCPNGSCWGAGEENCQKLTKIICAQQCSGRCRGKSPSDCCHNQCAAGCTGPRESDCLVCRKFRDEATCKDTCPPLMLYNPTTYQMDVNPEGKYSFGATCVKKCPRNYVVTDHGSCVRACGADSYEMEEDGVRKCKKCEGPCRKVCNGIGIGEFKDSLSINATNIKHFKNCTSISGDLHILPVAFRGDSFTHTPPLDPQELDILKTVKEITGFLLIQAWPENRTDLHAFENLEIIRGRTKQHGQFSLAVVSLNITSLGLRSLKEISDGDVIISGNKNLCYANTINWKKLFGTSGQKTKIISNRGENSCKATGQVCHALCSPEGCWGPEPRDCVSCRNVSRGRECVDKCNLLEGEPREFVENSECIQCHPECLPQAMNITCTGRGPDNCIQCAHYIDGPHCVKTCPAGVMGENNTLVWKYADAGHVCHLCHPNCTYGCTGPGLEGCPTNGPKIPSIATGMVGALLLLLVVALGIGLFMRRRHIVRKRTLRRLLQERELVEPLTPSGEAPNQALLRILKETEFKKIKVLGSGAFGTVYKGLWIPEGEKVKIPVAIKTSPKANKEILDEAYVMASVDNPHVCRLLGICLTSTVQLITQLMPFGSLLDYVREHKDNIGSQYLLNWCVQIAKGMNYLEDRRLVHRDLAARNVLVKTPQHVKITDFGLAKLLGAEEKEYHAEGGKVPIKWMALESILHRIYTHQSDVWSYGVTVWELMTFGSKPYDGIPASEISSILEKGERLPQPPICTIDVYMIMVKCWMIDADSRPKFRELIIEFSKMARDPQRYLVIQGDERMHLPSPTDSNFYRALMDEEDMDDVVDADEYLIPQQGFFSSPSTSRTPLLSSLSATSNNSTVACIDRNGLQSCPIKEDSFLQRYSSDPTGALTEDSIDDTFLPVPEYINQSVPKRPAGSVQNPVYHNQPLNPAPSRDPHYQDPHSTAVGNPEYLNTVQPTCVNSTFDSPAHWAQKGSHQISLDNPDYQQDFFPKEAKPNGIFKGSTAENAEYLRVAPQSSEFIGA
EGFR L858R/C797S, sequence (P00533 25-1210 C797S/L858R): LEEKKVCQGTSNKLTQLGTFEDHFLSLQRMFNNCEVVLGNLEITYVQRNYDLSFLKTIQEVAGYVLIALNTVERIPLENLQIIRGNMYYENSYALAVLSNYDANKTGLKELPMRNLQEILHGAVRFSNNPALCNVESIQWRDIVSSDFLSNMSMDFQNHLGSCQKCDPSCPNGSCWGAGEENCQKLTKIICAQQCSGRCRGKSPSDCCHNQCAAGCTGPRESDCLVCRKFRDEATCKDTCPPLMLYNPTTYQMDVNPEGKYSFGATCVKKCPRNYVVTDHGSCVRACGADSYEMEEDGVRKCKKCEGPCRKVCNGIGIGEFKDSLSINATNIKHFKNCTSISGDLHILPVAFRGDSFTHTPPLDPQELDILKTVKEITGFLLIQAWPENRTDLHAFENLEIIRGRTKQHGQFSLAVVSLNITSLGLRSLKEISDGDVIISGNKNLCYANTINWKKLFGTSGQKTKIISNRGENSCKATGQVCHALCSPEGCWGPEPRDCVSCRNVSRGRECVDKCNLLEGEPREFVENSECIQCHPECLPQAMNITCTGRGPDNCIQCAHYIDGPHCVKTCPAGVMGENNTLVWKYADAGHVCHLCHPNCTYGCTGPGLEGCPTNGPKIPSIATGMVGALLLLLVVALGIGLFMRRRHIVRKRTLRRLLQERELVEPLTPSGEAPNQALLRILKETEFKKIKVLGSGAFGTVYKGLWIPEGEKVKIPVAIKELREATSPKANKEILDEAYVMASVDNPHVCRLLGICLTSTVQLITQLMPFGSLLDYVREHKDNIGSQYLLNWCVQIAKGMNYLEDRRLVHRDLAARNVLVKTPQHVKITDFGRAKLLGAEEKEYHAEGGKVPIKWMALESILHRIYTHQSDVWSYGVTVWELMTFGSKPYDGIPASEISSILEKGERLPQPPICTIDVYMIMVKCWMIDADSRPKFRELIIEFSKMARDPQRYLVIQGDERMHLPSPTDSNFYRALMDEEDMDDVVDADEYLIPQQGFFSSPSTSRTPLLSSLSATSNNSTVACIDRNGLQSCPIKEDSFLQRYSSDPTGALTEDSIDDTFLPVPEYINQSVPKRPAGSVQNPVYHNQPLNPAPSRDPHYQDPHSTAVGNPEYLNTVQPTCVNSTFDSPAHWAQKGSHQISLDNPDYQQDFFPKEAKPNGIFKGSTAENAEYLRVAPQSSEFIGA
EGFR del19/T790M/C797S, sequence (P00533 with tags, fused parts or gaps DEL746-750/T790M/C797S): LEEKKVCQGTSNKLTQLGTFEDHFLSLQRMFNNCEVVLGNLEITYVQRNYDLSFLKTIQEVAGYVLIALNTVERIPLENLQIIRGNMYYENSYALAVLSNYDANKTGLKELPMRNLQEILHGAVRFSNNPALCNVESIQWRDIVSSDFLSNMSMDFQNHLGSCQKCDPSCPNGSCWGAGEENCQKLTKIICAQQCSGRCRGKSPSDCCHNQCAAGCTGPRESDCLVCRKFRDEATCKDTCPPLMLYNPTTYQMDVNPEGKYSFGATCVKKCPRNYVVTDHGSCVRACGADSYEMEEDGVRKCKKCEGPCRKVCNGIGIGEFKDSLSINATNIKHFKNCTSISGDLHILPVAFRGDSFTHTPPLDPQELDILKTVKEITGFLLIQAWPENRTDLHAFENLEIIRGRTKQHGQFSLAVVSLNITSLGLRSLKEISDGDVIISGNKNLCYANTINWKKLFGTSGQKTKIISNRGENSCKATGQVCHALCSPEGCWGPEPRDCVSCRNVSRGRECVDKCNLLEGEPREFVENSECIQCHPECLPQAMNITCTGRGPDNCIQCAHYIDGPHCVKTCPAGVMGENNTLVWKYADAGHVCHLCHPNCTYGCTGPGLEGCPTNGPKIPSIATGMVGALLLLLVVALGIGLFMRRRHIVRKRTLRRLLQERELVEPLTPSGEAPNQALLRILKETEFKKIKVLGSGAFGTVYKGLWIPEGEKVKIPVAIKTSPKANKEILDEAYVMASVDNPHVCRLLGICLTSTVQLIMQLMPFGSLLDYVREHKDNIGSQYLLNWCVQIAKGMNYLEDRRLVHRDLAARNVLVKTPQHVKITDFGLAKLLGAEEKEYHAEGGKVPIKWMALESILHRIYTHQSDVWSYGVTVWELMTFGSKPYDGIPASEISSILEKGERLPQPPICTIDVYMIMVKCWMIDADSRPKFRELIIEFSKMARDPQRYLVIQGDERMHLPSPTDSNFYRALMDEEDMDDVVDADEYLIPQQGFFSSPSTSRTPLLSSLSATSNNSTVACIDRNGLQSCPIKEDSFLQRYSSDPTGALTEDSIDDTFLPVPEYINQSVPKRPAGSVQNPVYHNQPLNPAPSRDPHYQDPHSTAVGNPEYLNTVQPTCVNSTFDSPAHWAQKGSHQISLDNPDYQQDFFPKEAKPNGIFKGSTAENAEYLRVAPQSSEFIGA

Consider `CN(C)C(=O)n1cc(-c2nccc(Nc3cc(N[C@H]4CC[C@@](C)(O)CC4)c(-c4ccn(C(F)F)n4)cn3)n2)cn1` [Example 311, 4-(4-((5-(1-(Difluoromethyl)-1H-pyrazol-3-yl)-4-(((1s,4s)-4-hydroxy-4-methylcyclohexyl)amino)pyridin-2-yl)amino)pyrimidin-2-yl)-N,N-dimethyl-1H-pyrazole-1-carboxamide], for which the IC50 in assay [1] (setting [6]) was 3.5 nM; in assay [2] (setting [7]), 30.1 nM; in assay [3] (setting [8]), 25.6 nM; in assay [4] (setting [9]), 1020 nM; in assay [5] (setting [10]), more than 10000 nM.

`CC(O)C(C)(C)Nc1cc(Nc2ccnc(-c3cnn(S(=O)(=O)C4CC4)c3)n2)ncc1-c1ccn(C(F)F)n1` (centres unmarked) [Example 7, 3-((2-((2-(1-(Cyclopropylsulfonyl)-1H-pyrazol-4-yl)pyrimidin-4-yl)amino)-5-(1-(difluoromethyl)-1H-pyrazol-3-yl)pyridin-4-yl)amino)-3-methylbutan-2-ol]: the IC50 in assay [1] (setting [6]) is 2.6 nM; in assay [2] (setting [7]), 281 nM; in assay [3] (setting [8]) it was 6 nM; in assay [4] (setting [9]), 246 nM; in assay [5] (setting [10]) it was more than 10000 nM.

As to `C=CCCS(=O)(=O)n1cc(-c2nccc(Nc3cc(N[C@H]4CC[C@@](C)(O)CC4)c(-c4ccn(C(F)F)n4)cn3)n2)cn1` [Example 117, (1s,4s)-4-((2-((2-(1-(But-3-en-1-ylsulfonyl)-1H-pyrazol-4-yl)pyrimidin-4-yl)amino)-5-(1-(difluoromethyl)-1H-pyrazol-3-yl)pyridin-4-yl)amino)-1-methylcyclohexan-1-ol], the IC50 amounted to 0.5 nM in assay [1] (Km ATP, read-out: IC50 del19/T790M/C797S (nM) Km ATP); 0.8 nM in assay [2] (setting [11]); 0.5 nM in assay [3] (setting [12]); 0.2 nM in assay [4] (setting [13]); 1.6 nM in assay [5] (setting [14]).

Consider `O=S(=O)(C1CC1)n1cc(-c2nccc(Nc3cc(NCCCn4ccnc4)c(-c4ccn(C(F)F)n4)cn3)n2)cn1` [Example 41, N^4-(3-(1H-Imidazol-1-yl)propyl)-N^2-(2-(1-(cyclopropylsulfonyl)-1H-pyrazol-4-yl)pyrimidin-4-yl)-5-(1-(difluoromethyl)-1H-pyrazol-3-yl)pyridine-2,4-diamine], for which the IC50 was 2 nM in assay [1] (setting [6]); 34.8 nM in assay [2] (setting [7]); 6.8 nM in assay [3] (setting [8]); more than 10000 nM in assay [4] (setting [9]); more than 10000 nM in assay [5] (setting [10]).

With `Cn1nc(-c2cnc(Nc3ccnc(-c4cnn(S(=O)(=O)C5CC5)c4)n3)cc2N[C@H]2CC[C@@](C)(O)CC2)cc1C(F)(F)F` [Example 252, (1s,4s)-4-((2-((2-(1-(Cyclopropylsulfonyl)-1H-pyrazol-4-yl)pyrimidin-4-yl)amino)-5-(1-methyl-5-(trifluoromethyl)-1H-pyrazol-3-yl)pyridin-4-yl)amino)-1-methylcyclohexan-1-ol], the IC50 in assay [1] (setting [6]) was 0.7 nM; in assay [2] (setting [11]) it was 1.2 nM; in assay [3] (setting [12]) it was 0.8 nM; in assay [4] (setting [9]), 9.8 nM; in assay [4] (setting [13]) it was 4.3 nM; in assay [5] (setting [10]), more than 10000 nM. In assay [5] (setting [14]), the IC50 came out at 3 nM.

Consider `CN(C)C[C@H]1C[C@@H](CNc2cc(Nc3ccnc(-c4cnn(S(=O)(=O)C5CC5)c4)n3)ncc2-c2ccn(C)n2)C1` [Example 234, N^2-(2-(1-(Cyclopropylsulfonyl)-1H-pyrazol-4-yl)pyrimidin-4-yl)-N^4-(((1s,3s)-3-((dimethylamino)methyl)cyclobutyl)methyl)-5-(1-methyl-1H-pyrazol-3-yl)pyridine-2,4-diamine], for which the IC50 in assay [1] (setting [6]) worked out at 0.1 nM; in assay [2] (setting [7]), 1.7 nM; in assay [3] (setting [8]) it was 0.2 nM; in assay [4] (setting [9]), 8.7 nM; in assay [5] (setting [10]), 1790 nM.

Values taken from patent publication US12258327B2, “5-membered heteroaryl-containing aminopyridine compounds as EGFR inhibitors” (YUHAN CORPORATION, priority 2021, dated 2025).
